Literature values, collected in paper PMC9762682, “Tocotrienols: Exciting Biological and Pharmacological Properties of Tocotrienols and Naturally Occurring Compounds, Part II” (Annals of clinical case reports, 2022).
One block for each compound: values may come before it.

How the values were obtained:
Melanoma cells = system: Melanoma cells; parameters: method as in PMID 29606130
Prostate cancer cells = system: Prostate cancer cells; parameters: method as in PMID 29606130; value at effective dose: scale not given here; conditions: for effective dose / percentage of control at effective dose / value at effective dose: 48 h;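 as to IC50: anti-proliferation of cancer cells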
Liver cancer cells = system: Liver cancer cells; parameters: method as in PMID 29606130; value at effective dose: unit not given here; conditions: for effective dose / percentage of control at effective dose / value at effective dose: 48 h
Pancreas cancer cells = system: Pancreas cancer cells; parameters: method as in PMID 29606130; value at effective dose: unit not given here; conditions: for effective dose / percentage of control at effective dose / value at effective dose: 48 h
Breast cancer cells = system: Breast cancer cells; parameters: method as in PMID 29606130; value at effective dose: unit not given here;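 as to IC50: anti-proliferation of cancer cells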
Hela cells = system: Hela cells; parameters: method as in PMID 29606130; value at effective dose: unit not given here; conditions: for effective dose / percentage of control at effective dose / value at effective dose: 48 h;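 as to IC50: anti-proliferation of cancer cells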
T-cells (Jurkat) = system: T-cells (Jurkat); parameters: method as in PMID 29606130; value at effective dose: unit not given here
Lung cancer cells = system: Lung cancer cells; parameters: method as in PMID 29606130; value at effective dose: unit not given here
B-Lymphocyte cells = system: B-Lymphocyte cells; parameters: method as in PMID 29606130; value at effective dose: unit not given here;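 as to IC50: anti-proliferation of cancer cells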

percentage of control at IC50 dose (Melanoma cells): 25% | percentage of control at IC50 dose (Prostate cancer cells): 39% | IC50 (Liver cancer cells): 5 µM | percentage of control at IC50 dose (Liver cancer cells): 45% | IC50 (Pancreas cancer cells): 40 µM | percentage of control at IC50 dose (Pancreas cancer cells): 42% | IC50 (Breast cancer cells): 10 µM | percentage of control at IC50 dose (Breast cancer cells): 45% | IC50 (Hela cells): 2.5 µM | percentage of control at IC50 dose (Hela cells): 48% | percentage of control at IC50 dose (T-cells (Jurkat)): 8% | percentage of control at IC50 dose (Lung cancer cells): 17% | percentage of control at IC50 dose (B-Lymphocyte cells): 5%
SMILES: COc1cc2c(cc1O)CC[C@@H]1[C@@H]2CC[C@]2(C)[C@@H](O)CC[C@@H]12 [2-Methoxyestradiol]
effective dose (Melanoma cells): 10 µM | percentage of control at effective dose (Melanoma cells): 11% | effective dose (Prostate cancer cells): 10 µM | percentage of control at effective dose (Prostate cancer cells): 30% | value at effective dose (Prostate cancer cells): 1.7 ± 1.5 | effective dose (Liver cancer cells): 10 µM | percentage of control at effective dose (Liver cancer cells): 27% | value at effective dose (Liver cancer cells): 19.7 ± 2.1 | effective dose (Pancreas cancer cells): 40 µM | percentage of control at effective dose (Pancreas cancer cells): 42% | value at effective dose (Pancreas cancer cells): 20.0 ± 2.0 | effective dose (Breast cancer cells): 20 µM | percentage of control at effective dose (Breast cancer cells): 44% | value at effective dose (Breast cancer cells): 8.0 ± 2.0 | effective dose (Hela cells): 20 µM | percentage of control at effective dose (Hela cells): 13% | value at effective dose (Hela cells): 4.3 ± 1.5 | effective dose (T-cells (Jurkat)): 5 µM | percentage of control at effective dose (T-cells (Jurkat)): 8% | value at effective dose (T-cells (Jurkat)): 31.3 ± 5.7 | effective dose (Lung cancer cells): 10 µM | percentage of control at effective dose (Lung cancer cells): 11% | value at effective dose (Lung cancer cells): 2.3 ± 1.5 | effective dose (B-Lymphocyte cells): 5 µM | percentage of control at effective dose (B-Lymphocyte cells): 33% | value at effective dose (B-Lymphocyte cells): 4.0 ± 2.0

IC50 (Melanoma cells): 80 µM | percentage of control at IC50 dose (Melanoma cells): 46% | IC50 (Prostate cancer cells): 80 µM | percentage of control at IC50 dose (Prostate cancer cells): 51% | IC50 (Liver cancer cells): 80 µM | percentage of control at IC50 dose (Liver cancer cells): 56% | IC50 (Pancreas cancer cells): 80 µM | percentage of control at IC50 dose (Pancreas cancer cells): 54% | IC50 (Breast cancer cells): 80 µM | percentage of control at IC50 dose (Breast cancer cells): 55% | IC50 (T-cells (Jurkat)): 80 µM | percentage of control at IC50 dose (T-cells (Jurkat)): 29% | IC50 (Lung cancer cells): 80 µM | percentage of control at IC50 dose (Lung cancer cells): 44% | IC50 (B-Lymphocyte cells): 40 µM | percentage of control at IC50 dose (B-Lymphocyte cells): 37%
SMILES: O=C1C[C@@H]2[C@@H](CO)[C@H](O)C[C@@H]2O1 [(−) Corey Lactone]
effective dose (Melanoma cells): 40 µM | percentage of control at effective dose (Melanoma cells): 62% | effective dose (Prostate cancer cells): 40 µM | percentage of control at effective dose (Prostate cancer cells): 60% | value at effective dose (Prostate cancer cells): 23.3 ± 2.1 | effective dose (Liver cancer cells): 80 µM | percentage of control at effective dose (Liver cancer cells): 56% | value at effective dose (Liver cancer cells): 31.7 ± 2.1 | effective dose (Pancreas cancer cells): 40 µM | percentage of control at effective dose (Pancreas cancer cells): 58% | value at effective dose (Pancreas cancer cells): 30.7 ± 1.2 | effective dose (Breast cancer cells): 40 µM | percentage of control at effective dose (Breast cancer cells): 77% | value at effective dose (Breast cancer cells): 17.7 ± 3.2 | effective dose (Hela cells): 80 µM | percentage of control at effective dose (Hela cells): 66% | value at effective dose (Hela cells): 36.0 ± 5.6 | effective dose (T-cells (Jurkat)): 40 µM | percentage of control at effective dose (T-cells (Jurkat)): 64% | value at effective dose (T-cells (Jurkat)): 280.3 ± 10.2 | effective dose (Lung cancer cells): 40 µM | percentage of control at effective dose (Lung cancer cells): 64% | value at effective dose (Lung cancer cells): 17.3 ± 3.8 | effective dose (B-Lymphocyte cells): 20 µM | percentage of control at effective dose (B-Lymphocyte cells): 59% | value at effective dose (B-Lymphocyte cells): 5.3 ± 1.5
